Assay results reported in article PMC5498006 (Biochemistry, 2016).

Target: T1, CCL21 (CC chemokine ligand 21), truncated (Homo sapiens, UniProt O00585)
T1 sequence (O00585 24-102): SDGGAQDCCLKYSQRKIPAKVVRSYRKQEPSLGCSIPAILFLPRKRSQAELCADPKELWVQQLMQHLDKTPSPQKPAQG
Test: 2D 1H-15N HSQC NMR titration
Type: binding

`N[C@@H](Cc1ccc(OS(=O)(=O)O)cc1)C(=O)O` [sY, sulfotyrosine] showed a Kd of roughly 38.9 mM.
